Data published in ChEMBL document CHEMBL1137733, “Studies on the interaction of caffeine with bovine hemoglobin” (Eur J Med Chem, 2009).

Target: albumin (Homo sapiens, UniProt P02768)
Assay: Binding affinity to human plasma albumin by ultracentrifugation
Format: cell-free
Settings: read-out: PB (converted)

Chain of albumin (P02768 whole entry): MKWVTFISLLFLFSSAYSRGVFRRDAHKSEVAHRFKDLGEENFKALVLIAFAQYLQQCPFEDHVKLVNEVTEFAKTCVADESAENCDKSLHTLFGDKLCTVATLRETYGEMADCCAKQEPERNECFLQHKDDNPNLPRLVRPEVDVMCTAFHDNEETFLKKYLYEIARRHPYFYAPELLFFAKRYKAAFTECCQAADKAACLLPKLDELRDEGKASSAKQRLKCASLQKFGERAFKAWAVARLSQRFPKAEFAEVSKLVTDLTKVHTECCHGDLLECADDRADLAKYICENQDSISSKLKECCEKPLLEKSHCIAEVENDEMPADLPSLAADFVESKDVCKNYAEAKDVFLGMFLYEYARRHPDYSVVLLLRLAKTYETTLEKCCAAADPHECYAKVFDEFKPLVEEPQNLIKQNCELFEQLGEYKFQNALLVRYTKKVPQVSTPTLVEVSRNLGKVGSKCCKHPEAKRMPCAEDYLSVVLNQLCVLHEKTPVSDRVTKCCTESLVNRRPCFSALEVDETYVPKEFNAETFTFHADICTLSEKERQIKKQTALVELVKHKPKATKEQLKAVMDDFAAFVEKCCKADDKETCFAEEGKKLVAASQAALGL

fraction unbound: 0.622
Structure (SMILES): Cn1c(=O)c2c(ncn2C)n(C)c1=O [CAFFEINE]
